Source: patent US20160346392A1, “PULSE PHOTODYNAMIC TREATMENT OF SKIN CONDITIONS” (GALDERMA RESEARCH & DEVELOPMENT, priority 2013, published 2016)
“Also recorded” adds a separate entry of the source. Where two headings read alike, the source gives them in different places.

What was measured:
acne [1] = conditions: 20% ALA acid applied to back for 3 hours, 150 J/cm2 broad band light; cited from earlier work
acne [2] = conditions: cream 16% wt. applied to face for 3 hours, non-coherent red light, repeated 2 weeks later; cited from earlier work
PpIX fluorescence = assay: Metvix pulse time investigation (Method B) on healthy volunteers: PpIX fluorescence; assay type: in vivo, human; conditions: short (30 min) pulse vs conventional 3-hour exposure; Table 1 and FIG. 8
Procedure: (§1) The formation of PPIX after 3 hours is seen in FIG. 8, and the relation to inflammation is seen in FIG. 9. […] The results are illustrated in Column 3 in FIGS. 4, 5, 6, and 7. […] Pain level is not changed.
Twenty-four healthy male volunteers of Scandinavian ancestry were included in the study (mean age 30 years, range 20-51). A treatment area was selected on the inside of both forearms of the volunteer. Each treatment area was divided into four minor treatment fields of the size 2×5 cm with at least 3 cm between each field using a prefabricated flexible template. In order to imitate skin lesions all fields were tape stripped 10 times with occlusive dressing before treatment (Tegaderm™ Roll, 3M, Glostrup, Denmark). […]
All fields were covered with light-impermeable, occlusive dressing. […] During and after illumination pain was recorded. […]
5-MAL-induced PpIX fluorescence was depicted non-invasively using a fluorescence camera (Medeikonos AB, Gothenburg, Sweden). The amount of PpIX fluorescence was calculated from the photographs by the program MatLab® (MatLab®, MathWorks, Natic, US). The amount of fluorescence was measured before tape stripping and cream application (baseline) and before and after illumination.
The photo bleaching is then the difference in PpIX fluorescence (AU) calculated from the pre and post illumination images.

[3] = Method A investigation of efficacy and inflammation with 30 min pulse exposure PDT; assay type: in vivo
Procedure: as §1

Structure (SMILES)	efficacy in treatment of acne (acne [1])	side effects of treatment (acne [1])	efficacy in treatment of acne (acne [2])	side effects of treatment (acne [2])	PPIX concentration, pulse exposure versus conventional 3-hour exposure (PpIX fluorescence)	inflammation (erythema) ([3]; 30 min pulse exposure vs conventional 180 min exposure, FIGS. 6, 7)	pain level ([3]; 30 min pulse exposure vs conventional exposure, FIG. 4)	cure rate / efficacy ([3]; 30 min pulse exposure vs conventional exposure, FIG. 5)
NCC(=O)CCC(=O)O [ALA, 5-amino-4-oxo-pentanoic acid]	effective for the treatment of acne	erythema, hyperpigmentation and exfoliation were often seen after PDT treatment						
COC(=O)CCC(=O)CN [5-MAL, 5-ALA methyl ester]			effective in the treatment of acne	caused pain and induced severe inflammation	clearly lower than for the conventional 3 hour exposure	less inflammation	not changed	unchanged efficacy; also recorded: as efficient
